Experimental data taken from paper PMC6929626, “PET/MRI enables simultaneous in vivo quantification of β-cell mass and function” (Theranostics, 2020).

Legend:
[1] = LA-ICP-MS imaging of ^55Mn in pancreas sections, cross-validated with autoradiography; format: in vivo, mice
Experimental: The whole pancreata from control and transgenic RIP1-Tag2 mice were isolated after cervical dislocation under anesthesia. Then, the whole pancreata were embedded in O.C.T. (optimum cutting temperature) embedding compound (Sakura, Zoeterwonde, NL) and snap frozen at -20 °C. Subsequently, serial 20 µm cryosections were obtained using a Cryostat (Leica 1850, Leica GmbH, Wetzlar, DE) and exposed to a 35×43 cm Storage Phosphor Screen (445SI, Molecular Dynamics, Sunnyvale, CA, USA) at room temperature for 24 h and 48 h for animals sacrificed at 1 h and 24 h, respectively. Scanning of the phosphor imaging plate was performed using a Storm 840 scanner (STORM 840, Amersham Biosciences, Amersham, UK) with a spatial resolution of 50x50 µm^2 and analyzed using ImageJ software (US NIH, Bethesda, Maryland, USA). Thus, we calculated the main effect of the PET tracer uptake, expressed as islet-to-exocrine ratio to estimate the islet diameter identified as single spots throughout the pancreas sections in both groups (Fig. S3).
The autoradiography slides were scanned line-by-line at 60 µm laser spot size using an NWR 213 laser ablation system (New Wave Research, Fremont, CA, USA). […] The isotopes ^44Ca, ^65Cu, ^64Zn,^ 55Mn, ^13C were monitored among the exocrine and the endocrine tissue in the healthy and insulinoma mice. […]

[2] = test system: isolated pancreatic islets; assay: Glucose-dependent insulin secretion of isolated islets after in vivo MnCl2:Bicine (radioimmunoassay); set-up: species or system mice
Experimental: The chronic exposure to high concentrations of Mn can potentially lead to cytotoxic effects on heart, liver and brain [26]. We hypothesized that the early and late retention of Mn might impair the physiological integrity of the glucose-dependent insulin response of islet cells. To investigate the physiological function of the islets, glucose-dependent insulin secretion was measured in vitro 1 or 24 h after a single systemic in vivo administration of MnCl2:Bicine solution (75 µmol/kg) on a new group of mice (Table. 1, Group 4). Secretion assays were performed on isolated islets, followed by quantification of insulin content using radioimmunoassay. The response to glucose of each individual mouse was assessed by calculating the enhancement of insulin secretion between basal (3 mM) and stimulating glucose concentration (15 mM).
Before the isolation of islets, control and RIP1-Tag2 mice previously anesthetized using 1-2% isoflurane/O2 gas mixture (Vetland, Louisville, KY, USA) and intravenously injected with a bolus of MnCl2:Bicine solution (75 µmol/kg), analogously to the in vivo imaging protocol. […] The content of insulin in the supernatant was determined by radioimmunoassay using as insulin standards Millipore 8013-K (Merck, Darmstadt, DE). […]

**Q.** Which “spatial distribution of exogenous ^55Mn in pancreas sections” value ([1]; 1 h after injection, merged elemental images of ^55Mn, ^44Ca, ^64Zn, control and 13-wk RIP1-Tag2 mice) does the source give for MnCl2:Bicine here?
**A.** higher concentration of ^55Mn in the exocrine pancreas

**Q.** And the “spatial distribution of exogenous ^55Mn in pancreas sections” value ([1]; 24 h after injection, control and RIP1-Tag2 mice)?
**A.** only low levels of ^55Mn were found in the exocrine pancreas

**Q.** What about the “effect of contrast agent accumulation on glucose-dependent insulin secretion response” value ([2]; islets isolated 1 h and 24 h after single i.v. 75 µmol/kg, 8-wk old control and RIP1-Tag2 mice) of the same substance?
**A.** not affected

**Q.** And the “enhancement of insulin secretion, stimulating (15 mM) vs basal (3 mM) glucose” value ([2]; islets of 8-wk old control and RIP1-Tag2 mice isolated 1 or 24 h after single i.v. 75 µmol/kg, radioimmunoassay, n=3/3)?
**A.** 10-20 times
